Measurements: ChEMBL document CHEMBL3045987, “Antitussive effects of azepino[2,1-b]quinazolones” (Med Chem Res, 2012)
The source made the active and inactive calls. The rule behind the calls is not given here.

Legend:
Format in all cases: functional, organism-based
Cavia porcellus [1] = assay: Antitussive activity against citric acid-induced cough in Cavia porcellus albino (guinea pig) model assessed as increase in cough latency at 5 to 20 mg/kg, ip administered 30 min before aersol of citric acid for 10 min
Cavia porcellus [2] = assay: Antitussive activity against citric acid-induced cough in Cavia porcellus albino (guinea pig) model assessed as decrease in cough frequency per 10 min at 5 to 20 mg/kg, ip administered 30 min before aersol of citric acid for 10 min
Cavia porcellus [3] = assay: Antitussive activity against citric acid-induced cough in Cavia porcellus albino (guinea pig) model assessed as decrease in cough frequency per 10 min at 10 mg/kg, ip administered 30 min before aersol of citric acid for 10 min; design: dose 10 mg/kg
Cavia porcellus [4] = assay: Antitussive activity against citric acid-induced cough in Cavia porcellus albino (guinea pig) model assessed as increase in cough latency at 10 mg/kg, ip administered 30 min before aersol of citric acid for 10 min; design: dose 10 mg/kg

SMILES	Activity (Cavia porcellus [1])	inhibition (Cavia porcellus [2])	inhibition (Cavia porcellus [3])	Activity (Cavia porcellus [4])
O=c1c2ccccc2nc2n1CCCCC2	Active	Active		
O=c1c2cc(Br)cc(Br)c2nc2n1CCCCC2	Active	Active		
COc1ccc(CNc2ccc3nc4n(c(=O)c3c2)CCCCC4)cc1OC	Active	Active		
COc1ccc2c3c1O[C@H]1[C@@H](O)C=C[C@H]4[C@@H](C2)N(C)CC[C@@]341			Active	Active
O=c1c2cc(O)cc(O)c2nc2n1CCCCC2	Active	Active		
O=c1c2cc([N+](=O)[O-])ccc2nc2n1CCCCC2	Active	Active		
COc1cc(CNc2ccc3nc4n(c(=O)c3c2)CCCCC4)cc(OC)c1OC	Active	Active		
Nc1ccc2nc3n(c(=O)c2c1)CCCCC3	Active	Active		
N#Cc1ccc(CNc2ccc3nc4n(c(=O)c3c2)CCCCC4)cc1	Active	Active		
O=c1c2cc(NCc3ccc([N+](=O)[O-])cc3)ccc2nc2n1CCCCC2	Active	Active		
CN1c2ccccc2C(=O)N2CCCCCC21 (centres undefined)	Active	Active		
O=C1c2ccccc2NC2CCCCCN12 (centres undefined)	Active	Active		
CCN1c2ccccc2C(=O)N2CCCCCC21 (centres undefined)	Active	Active		
O=C1c2ccccc2N(Cc2ccccc2)C2CCCCCN12 (centres undefined)	Active	Active		
O=C1c2ccccc2N(C(=O)c2ccccc2)C2CCCCCN12 (centres undefined)	Active	Active		
COc1cc(OC)c2nc3n(c(=O)c2c1)CCCCC3	Active	Active		
CC(=O)N1c2ccccc2C(=O)N2CCCCCC21 (centres undefined)	Active	Active		
